Data as given in ChEMBL document CHEMBL4373723 (J Med Chem, 2019).
pKd: −log10 of the molar value. Bridge positions count the residues as written; N and C are the ends. Square brackets hold non-standard residues; d marks the D form. Peptide text beside a SMILES is read from it. I, II: the chains in the order shown. Phe(3,4-Cl2) = N[C@@H](Cc1ccc(Cl)c(Cl)c1)C(=O)O; Phe(4-CF3) = N[C@@H](Cc1ccc(C(F)(F)F)cc1)C(=O)O; Phe(2,4-Cl2) = N[C@@H](Cc1ccc(Cl)cc1Cl)C(=O)O; Phe(3-Cl) = N[C@@H](Cc1cccc(Cl)c1)C(=O)O; Phe(4-Cl) = N[C@@H](Cc1ccc(Cl)cc1)C(=O)O; Phe(4-Me) = Cc1ccc(C[C@H](N)C(=O)O)cc1

Tests used:
Frizzled-7 [1] = target: T1, Frizzled-7 (Homo sapiens, UniProt O75084); format: cell-based; conditions: cho
Frizzled-7 [2] = target: T1, Frizzled-7; test: biochemical; format: cell-based, CHO; conditions: read-out: Kd
Frizzled-7 [3] = target: T1, Frizzled-7; conditions: CHO
Description: Binding affinity to recombinant human Frizzled-7 (Gln33 to Leu185 residues)/human IgG1 chimeric protein expressed in CHO cells assessed as association rate constant by SPR assay

| Compound | Kd (Frizzled-7 [1]) [×10⁻³ /s] | pKd (Frizzled-7 [2]) | Ka (Frizzled-7 [3]) [×10⁵ /M/s] |
| --- | --- | --- | --- |
| CSCC[C@H](NC(=O)[C@@H](NC(=O)[C@H](Cc1cnc[nH]1)NC(=O)[C@H](CSSC[C@H](NC(=O)[C@H](Cc1c[nH]c2ccccc12)NC(=O)[C@H](Cc1ccccc1)NC(=O)[C@H](CCC(=O)O)NC(=O)[C@H](CC(C)C)NC(=O)[C@H](CC(=O)O)NC(=O)[C@H](CC(=O)O)NC(=O)[C@H](CO)NC(C)=O)C(=O)N[C@@H](Cc1cnc[nH]1)C(=O)N[C@H](C(=O)N[C@@H](CCSC)C(=O)N[C@@H](Cc1ccc(Cl)cc1Cl)C(N)=O)C(C)C)NC(=O)[C@H](Cc1c[nH]c2ccccc12)NC(=O)[C@H](Cc1ccccc1)NC(=O)[C@H](CCC(=O)O)NC(=O)[C@H](CC(C)C)NC(=O)[C@H](CC(=O)O)NC(=O)[C@H](CC(=O)O)NC(=O)[C@H](CO)NC(C)=O)C(C)C)C(=O)N[C@@H](Cc1ccc(Cl)cc1Cl)C(N)=O (I: Ac-SDDLEFWCHVM[Phe(2,4-Cl2)]-NH2 / II: Ac-SDDLEFWCHVM[Phe(2,4-Cl2)]-NH2; disulfide I:8-II:8) | 2.89 | 7.65 | 1.29 |
| CSCC[C@H](NC(=O)[C@@H](NC(=O)[C@H](Cc1cnc[nH]1)NC(=O)[C@H](CSSC[C@H](NC(=O)[C@H](Cc1c[nH]c2ccccc12)NC(=O)[C@H](Cc1ccccc1)NC(=O)[C@H](CCC(=O)O)NC(=O)[C@H](CC(C)C)NC(=O)[C@H](CC(=O)O)NC(=O)[C@H](CC(=O)O)NC(=O)[C@H](CO)NC(C)=O)C(=O)N[C@@H](Cc1cnc[nH]1)C(=O)N[C@H](C(=O)N[C@@H](CCSC)C(=O)N[C@@H](Cc1ccc(Cl)c(Cl)c1)C(N)=O)C(C)C)NC(=O)[C@H](Cc1c[nH]c2ccccc12)NC(=O)[C@H](Cc1ccccc1)NC(=O)[C@H](CCC(=O)O)NC(=O)[C@H](CC(C)C)NC(=O)[C@H](CC(=O)O)NC(=O)[C@H](CC(=O)O)NC(=O)[C@H](CO)NC(C)=O)C(C)C)C(=O)N[C@@H](Cc1ccc(Cl)c(Cl)c1)C(N)=O (I: Ac-SDDLEFWCHVM[Phe(3,4-Cl2)]-NH2 / II: Ac-SDDLEFWCHVM[Phe(3,4-Cl2)]-NH2; disulfide I:8-II:8) | 0.9 | 8.19 | 1.4 |
| CSCC[C@H](NC(=O)[C@@H](NC(=O)[C@H](Cc1cnc[nH]1)NC(=O)[C@H](CSSC[C@H](NC(=O)[C@H](Cc1c[nH]c2ccccc12)NC(=O)[C@H](Cc1ccccc1)NC(=O)[C@H](CCC(=O)O)NC(=O)[C@H](CC(C)C)NC(=O)[C@H](CC(=O)O)NC(=O)[C@H](CC(=O)O)NC(=O)[C@H](CO)NC(C)=O)C(=O)N[C@@H](Cc1cnc[nH]1)C(=O)N[C@H](C(=O)N[C@@H](CCSC)C(=O)N[C@@H](Cc1ccc(C(F)(F)F)cc1)C(N)=O)C(C)C)NC(=O)[C@H](Cc1c[nH]c2ccccc12)NC(=O)[C@H](Cc1ccccc1)NC(=O)[C@H](CCC(=O)O)NC(=O)[C@H](CC(C)C)NC(=O)[C@H](CC(=O)O)NC(=O)[C@H](CC(=O)O)NC(=O)[C@H](CO)NC(C)=O)C(C)C)C(=O)N[C@@H](Cc1ccc(C(F)(F)F)cc1)C(N)=O (I: Ac-SDDLEFWCHVM[Phe(4-CF3)]-NH2 / II: Ac-SDDLEFWCHVM[Phe(4-CF3)]-NH2; disulfide I:8-II:8) | 1.9 | 7.88 | 1.45 |
| CSCC[C@H](NC(=O)[C@@H](NC(=O)[C@H](Cc1cnc[nH]1)NC(=O)[C@H](CSSC[C@H](NC(=O)[C@H](Cc1c[nH]c2ccccc12)NC(=O)[C@H](Cc1ccccc1)NC(=O)[C@H](CCC(=O)O)NC(=O)[C@H](CC(C)C)NC(=O)[C@H](CC(=O)O)NC(=O)[C@H](CC(=O)O)NC(=O)[C@H](CO)NC(C)=O)C(=O)N[C@@H](Cc1cnc[nH]1)C(=O)N[C@H](C(=O)N[C@@H](CCSC)C(=O)N[C@@H](Cc1ccc(Cl)cc1)C(N)=O)C(C)C)NC(=O)[C@H](Cc1c[nH]c2ccccc12)NC(=O)[C@H](Cc1ccccc1)NC(=O)[C@H](CCC(=O)O)NC(=O)[C@H](CC(C)C)NC(=O)[C@H](CC(=O)O)NC(=O)[C@H](CC(=O)O)NC(=O)[C@H](CO)NC(C)=O)C(C)C)C(=O)N[C@@H](Cc1ccc(Cl)cc1)C(N)=O (I: Ac-SDDLEFWCHVM[Phe(4-Cl)]-NH2 / II: Ac-SDDLEFWCHVM[Phe(4-Cl)]-NH2; disulfide I:8-II:8) | 0.82 | 9.06 | 9.3 |
| CSCC[C@H](NC(=O)[C@@H](NC(=O)[C@H](Cc1cnc[nH]1)NC(=O)[C@H](CSSC[C@H](NC(=O)[C@H](Cc1c[nH]c2ccccc12)NC(=O)[C@H](Cc1ccccc1)NC(=O)[C@H](CCC(=O)O)NC(=O)[C@H](CC(C)C)NC(=O)[C@H](CC(=O)O)NC(=O)[C@H](CC(=O)O)NC(=O)[C@H](CO)NC(C)=O)C(=O)N[C@@H](Cc1cnc[nH]1)C(=O)N[C@H](C(=O)N[C@@H](CCSC)C(=O)N[C@@H](Cc1ccc(C)cc1)C(N)=O)C(C)C)NC(=O)[C@H](Cc1c[nH]c2ccccc12)NC(=O)[C@H](Cc1ccccc1)NC(=O)[C@H](CCC(=O)O)NC(=O)[C@H](CC(C)C)NC(=O)[C@H](CC(=O)O)NC(=O)[C@H](CC(=O)O)NC(=O)[C@H](CO)NC(C)=O)C(C)C)C(=O)N[C@@H](Cc1ccc(C)cc1)C(N)=O (I: Ac-SDDLEFWCHVM[Phe(4-Me)]-NH2 / II: Ac-SDDLEFWCHVM[Phe(4-Me)]-NH2; disulfide I:8-II:8) | 0.98 | 9.01 | 10.2 |
| CSCC[C@H](NC(=O)[C@@H](NC(=O)[C@H](Cc1cnc[nH]1)NC(=O)[C@H](CSSC[C@H](NC(=O)[C@H](Cc1c[nH]c2ccccc12)NC(=O)[C@H](CC(C)C)NC(=O)[C@H](CCC(=O)O)NC(=O)[C@H](CC(C)C)NC(=O)[C@H](CC(=O)O)NC(=O)[C@H](CC(=O)O)NC(=O)[C@H](CO)NC(C)=O)C(=O)N[C@@H](Cc1cnc[nH]1)C(=O)N[C@H](C(=O)N[C@@H](CCSC)C(=O)N[C@@H](Cc1ccc(O)cc1)C(N)=O)C(C)C)NC(=O)[C@H](Cc1c[nH]c2ccccc12)NC(=O)[C@H](CC(C)C)NC(=O)[C@H](CCC(=O)O)NC(=O)[C@H](CC(C)C)NC(=O)[C@H](CC(=O)O)NC(=O)[C@H](CC(=O)O)NC(=O)[C@H](CO)NC(C)=O)C(C)C)C(=O)N[C@@H](Cc1ccc(O)cc1)C(N)=O (I: Ac-SDDLELWCHVMY-NH2 / II: Ac-SDDLELWCHVMY-NH2; disulfide I:8-II:8) | 0.6 | 10.10 | 76.5 |
| CC[C@H](C)[C@H](NC(=O)[C@H](Cc1cnc[nH]1)NC(=O)[C@H](CSSC[C@H](NC(=O)[C@H](Cc1c[nH]c2ccccc12)NC(=O)[C@H](Cc1cccc(Cl)c1)NC(=O)[C@H](CCC(=O)O)NC(=O)[C@H](CC(C)C)NC(=O)[C@H](CC(=O)O)NC(=O)[C@H](CC(=O)O)NC(=O)[C@H](CO)NC(C)=O)C(=O)N[C@@H](Cc1cnc[nH]1)C(=O)N[C@H](C(=O)N[C@@H](CCSC)C(=O)N[C@@H](Cc1ccc(O)cc1)C(N)=O)[C@@H](C)CC)NC(=O)[C@H](Cc1c[nH]c2ccccc12)NC(=O)[C@H](Cc1cccc(Cl)c1)NC(=O)[C@H](CCC(=O)O)NC(=O)[C@H](CC(C)C)NC(=O)[C@H](CC(=O)O)NC(=O)[C@H](CC(=O)O)NC(=O)[C@H](CO)NC(C)=O)C(=O)N[C@@H](CCSC)C(=O)N[C@@H](Cc1ccc(O)cc1)C(N)=O (I: Ac-SDDLE[Phe(3-Cl)]WCHIMY-NH2 / II: Ac-SDDLE[Phe(3-Cl)]WCHIMY-NH2; disulfide I:8-II:8) | 0.57 | 10.08 | 68.4 |
| CSCC[C@H](NC(=O)[C@@H](NC(=O)[C@H](Cc1cnc[nH]1)NC(=O)[C@H](CSSC[C@H](NC(=O)[C@H](Cc1c[nH]c2ccccc12)NC(=O)[C@H](Cc1cccc(Cl)c1)NC(=O)[C@H](CCC(=O)O)NC(=O)[C@H](CC(C)C)NC(=O)[C@H](CC(=O)O)NC(=O)[C@H](CC(=O)O)NC(=O)[C@H](CO)NC(C)=O)C(=O)N[C@@H](Cc1cnc[nH]1)C(=O)N[C@H](C(=O)N[C@@H](CCSC)C(=O)N[C@@H](Cc1ccc(O)cc1)C(N)=O)C(C)C)NC(=O)[C@H](Cc1c[nH]c2ccccc12)NC(=O)[C@H](Cc1cccc(Cl)c1)NC(=O)[C@H](CCC(=O)O)NC(=O)[C@H](CC(C)C)NC(=O)[C@H](CC(=O)O)NC(=O)[C@H](CC(=O)O)NC(=O)[C@H](CO)NC(C)=O)C(C)C)C(=O)N[C@@H](Cc1ccc(O)cc1)C(N)=O (I: Ac-SDDLE[Phe(3-Cl)]WCHVMY-NH2 / II: Ac-SDDLE[Phe(3-Cl)]WCHVMY-NH2; disulfide I:8-II:8) | 0.63 | 10.00 | 66.3 |
| CSCC[C@H](NC(=O)[C@@H](NC(=O)[C@H](Cc1cnc[nH]1)NC(=O)[C@H](CSSC[C@H](NC(=O)[C@H](Cc1c[nH]c2ccccc12)NC(=O)[C@H](Cc1ccc(Cl)cc1)NC(=O)[C@H](CCC(=O)O)NC(=O)[C@H](CC(C)C)NC(=O)[C@H](CC(=O)O)NC(=O)[C@H](CC(=O)O)NC(=O)[C@H](CO)NC(C)=O)C(=O)N[C@@H](Cc1cnc[nH]1)C(=O)N[C@H](C(=O)N[C@@H](CCSC)C(=O)N[C@@H](Cc1ccc(O)cc1)C(N)=O)C(C)C)NC(=O)[C@H](Cc1c[nH]c2ccccc12)NC(=O)[C@H](Cc1ccc(Cl)cc1)NC(=O)[C@H](CCC(=O)O)NC(=O)[C@H](CC(C)C)NC(=O)[C@H](CC(=O)O)NC(=O)[C@H](CC(=O)O)NC(=O)[C@H](CO)NC(C)=O)C(C)C)C(=O)N[C@@H](Cc1ccc(O)cc1)C(N)=O (I: Ac-SDDLE[Phe(4-Cl)]WCHVMY-NH2 / II: Ac-SDDLE[Phe(4-Cl)]WCHVMY-NH2; disulfide I:8-II:8) | 1.71 | 8.98 | 16.5 |
| CSCC[C@H](NC(=O)[C@@H](NC(=O)[C@H](Cc1cnc[nH]1)NC(=O)[C@H](CSSC[C@H](NC(=O)[C@H](Cc1c[nH]c2ccccc12)NC(=O)[C@H](Cc1ccccc1)NC(=O)[C@H](CCCCN)NC(=O)[C@H](CC(C)C)NC(=O)[C@H](CC(=O)O)NC(=O)[C@H](CC(=O)O)NC(=O)[C@H](CO)NC(C)=O)C(=O)N[C@@H](Cc1cnc[nH]1)C(=O)N[C@H](C(=O)N[C@@H](CCSC)C(=O)N[C@@H](Cc1ccc(O)cc1)C(N)=O)C(C)C)NC(=O)[C@H](Cc1c[nH]c2ccccc12)NC(=O)[C@H](Cc1ccccc1)NC(=O)[C@H](CCCCN)NC(=O)[C@H](CC(C)C)NC(=O)[C@H](CC(=O)O)NC(=O)[C@H](CC(=O)O)NC(=O)[C@H](CO)NC(C)=O)C(C)C)C(=O)N[C@@H](Cc1ccc(O)cc1)C(N)=O (I: Ac-SDDLKFWCHVMY-NH2 / II: Ac-SDDLKFWCHVMY-NH2; disulfide I:8-II:8) | 1.33 | 9.80 | 85.6 |
